EP4772520A1, “NOVEL PRODRUG-TYPE ANTICANCER AGENT TARGETING CANCER-SPECIFIC ENZYME ACTIVITY” (priority 2023, dated 2025)

How the values were obtained:
[1] = target: T1, human AChE (Homo sapiens, UniProt P22303); test: Evaluation of inhibitory activity on acetylcholinesterase (AChE); type: biochemical; details: for AChE inhibitory activity: in the presence of 10 µM of each drug; for IC50: read-out: IC50 value for AChE inhibition, 60 min value
T1 construct: purchased AnaSpec, Inc
Method: The procedure of the specific inhibition test is shown below. • (1) A test drug at each concentration was added to a 96 well plate, and acetylcholine, an AChE substrate, and an AChE purified enzyme were added according to a protocol, using SensoLyte (registered trademark) 520 Acetylcholine esterase Activity Assay Kit Fluorometric (AnaSpec, Inc.). Neostigmine bromide known as an AChE inhibitor was used as […]. • (2) The fluorescence value at 520 nm was measured, and the IC50 value was calculated.

[2] = tested on: SHP77-luc; test: Tumor proliferation suppression test in small cell lung cancer orthotopic model; type: in vivo, mice; details: 40 mg/kg i.v. twice a week for 4 weeks; for tumor growth (luciferin/luciferase luminescence): n = 6, vs Vehicle
Method: The tumor proliferation suppression effect of the developed prodrugs SN38-βGal and SN38-βGlcNAc in a small cell lung cancer model was evaluated. The model was created by orthotopically transplanting SHP77-luc in which luciferase was expressed in a small cell lung cancer cell line SHP77 relative to BALB/cAJcl-nu/nu into the lung. The Vehicle (DMSO administration) group, the SN38-βGal administration group, and the SN38-βGlcNAc administration group were n = 6, respectively. The administration form was intravenous administration (i.v.), and the dose was 40 mg/kg, and administration was performed twice a week for 4 weeks. The tumor burden was evaluated by the luciferin/luciferase luminescence value.
A specific procedure of the therapeutic experiment is shown below. • (1) Model mice were created by the following procedure using 20 BALB/cAJcl-nu/nu (7 weeks old/female) mice. 150 to 200 µL of an anesthetic (a mixture of 3 kinds of Domitor + Betorphal + Mitazolam) was intraperitoneally administered to perform anesthesia. The skin of the left chest was incised, the subcutaneous tissue was detached, and then SHP77 luc cell suspension 2 × 10^7 cells/mL (50 µL, 5% Matrigel) was injected from the intercostal pleura to the left lung. The skin was sutured at 3 sites, and 150 to 200 µL of an anti-sedan (atipamezol) solution was intraperitoneally administered to check awakening of the mice. • (2) After 3 weeks, the formation of cancer was confirmed by luciferin/luciferase luminescence, and the administration of the drug was started. The drug was prepared by dissolving 200 mM of DMSO stock in PBS, and was administered from the tail vein in a total amount of 100 µL.3 mg (200 µL) of luciferin was intraperitoneally administered, and anesthetized with isoflurane. Thereafter, the luminescent value at 15 minutes after administration was measured by an in vivo imaging device. • (3) On the day of evaluation, the tumor burden was evaluated by the body weight and the luciferin/luciferase luminescence.

[3] = Single dose toxicity test 2 (intravenous); type: in vivo, Jcl: ICR mice (female); details: for Survival rate (%) (after 14 days) / Survival rate (%) (just after administration): n=10; for symptoms immediately after administration: SN38-βGal 300 mg/kg, SN38-βGlcNAc 500 mg/kg intravenous, improved in several hours; for LD50 at 336 h: mouse, in vivo, iv, single intravenous administration, estimated
Method: Single dose toxicity was evaluated by intravenously administering the novel prodrug-type anticancer agents SN38-βGal and SN38-βGlcNAc to Jcl: ICR mice (female). […] 500 mg/kg of SN38-βGlcNAc was intravenously administered.

[4] = tested on: lung squamous carcinomas cell H226; test: Tumor proliferation suppression test in H226 subcutaneous tumor model; type: in vivo, mice; details: 200 mg/kg i.v. 3 times a week for 2 weeks, n = 5, vs Vehicle
Method: 200 mg/kg of SN38-βGlcNAc was intravenously administered 3 times a week for 2 weeks to subcutaneous tumor model mice of lung squamous carcinomas cell H226, and the tumor proliferation suppression effect was evaluated. The Vehicle (DMSO administration) group and the SN38-βGlcNAc administration group were n = 5, respectively.
The drug SN38-βGlcNAc was prepared by dissolving a 200 mM of DMSO stock in PBS, and was intravenously administered from the tail vein 3 times a week for 2 weeks at a dose of 200 mg/kg with a total amount of 100 µL. • (3) The body weight was measured on the day of evaluation, and the tumor volume was evaluated with a vernier caliper. • (4) Tumors were resected on day 19 from the start of dosing and their sizes were compared.

[5] = tested on: primary lung squamous cell carcinoma PDX tumor (DLUN013/F_PDX_000162); test: Tumor proliferation suppression test in PDX model mice; type: in vivo; details: 200 mg/kg i.v., 6 times over 2 weeks
Method: With respect to SN38-βGlcNAc showing high sensitivity by the organoid test, an in vivo tumor proliferation suppression test was performed using a primary lung squamous cell carcinoma PDX tumor (DLUN013/F_PDX_000162) established at Fukushima Medical University Medical and Industrial TR Center from the same patient. 200 mg/kg of SN38-βGlcNAc was intravenously administered to PDX subcutaneous tumor model mice a total of 6 times over 2 weeks as shown in the administration schedule (a of Fig. 30), and the tumor proliferation suppression effect was evaluated. The Vehicle (DMSO administration) group and the SN38-βGlcNAc administration group were n = 6, respectively.
A specific procedure of the therapeutic experiment is shown below. • (1) The tube containing the frozen tumor tissue was thawed in a thermostatic water bath at 37°C. […] The SN38-βGlcNAc was prepared by dissolving a 400 mM of DMSO stock in PBS, and was intravenously administered from the tail vein 3 times a week for 2 weeks at a dose of 200 mg/kg with a total amount of 100 µL. • (5) The tumor volume and body weight were measured on the day of evaluation. • (6) The tumor was removed, and then subjected to fluorescence imaging using HMRef-βGlcNAc (50 µM, PBS solution) in the presence and absence of PUGNAc (500 µM), which is an inhibitor of β-hexosaminidase.

T1 sequence (P22303 32-614): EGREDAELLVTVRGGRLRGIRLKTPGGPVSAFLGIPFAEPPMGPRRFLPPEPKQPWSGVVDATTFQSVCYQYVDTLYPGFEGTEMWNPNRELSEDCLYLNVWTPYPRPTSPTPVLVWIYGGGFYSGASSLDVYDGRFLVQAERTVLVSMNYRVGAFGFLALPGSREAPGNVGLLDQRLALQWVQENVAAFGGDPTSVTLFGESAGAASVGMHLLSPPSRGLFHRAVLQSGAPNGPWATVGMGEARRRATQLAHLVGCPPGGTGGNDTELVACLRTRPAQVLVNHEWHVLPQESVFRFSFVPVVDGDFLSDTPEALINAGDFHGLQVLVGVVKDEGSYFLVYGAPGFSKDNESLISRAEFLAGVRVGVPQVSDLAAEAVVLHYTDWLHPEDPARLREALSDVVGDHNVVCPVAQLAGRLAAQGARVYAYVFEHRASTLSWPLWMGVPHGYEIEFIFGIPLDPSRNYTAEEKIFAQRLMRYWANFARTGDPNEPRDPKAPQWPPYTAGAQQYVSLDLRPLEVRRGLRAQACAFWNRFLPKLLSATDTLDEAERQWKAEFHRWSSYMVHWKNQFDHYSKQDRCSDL

| Structure (SMILES) | AChE inhibitory activity [1] | IC50 [1] [mM] | body weight [2] | tumor growth (luciferin/luciferase luminescence) [2] | Survival rate (%) (after 14 days) ([3]; 200 mg/kg intravenous) | Survival rate (%) (just after administration) ([3]; 200 mg/kg intravenous) | symptoms immediately after administration [3] | LD50 at 336 h [3] [mg/kg] | tumor proliferation suppression effect (tumor volume) [4] | Survival rate (%) (after 14 days) ([3]; 300 mg/kg intravenous) | Survival rate (%) (just after administration) ([3]; 300 mg/kg intravenous) | Survival rate (%) (after 14 days) ([3]; 500 mg/kg intravenous) | Survival rate (%) (just after administration) ([3]; 500 mg/kg intravenous) | body weight change [5] | tumor proliferation suppression effect (tumor volume) ([5]; n = 6, vs Vehicle) |
| --- | --- | --- | --- | --- | --- | --- | --- | --- | --- | --- | --- | --- | --- | --- | --- |
| CCc1c2c(nc3ccc(O[C@@H]4O[C@H](CO)[C@H](O)[C@H](O)[C@H]4O)cc13)-c1cc3c(c(=O)n1C2)COC(=O)[C@]3(O)CC [SN38-βGal] | did not inhibit AChE activity in this concentration range | 1.56 | no body weight loss was found during the treatment period | significant suppression of tumor growth was confirmed | 100 | 100 | reduced locomotor activity and prone states were found in more than half of the mice in both groups | ≥ 300 |  |  |  |  |  |  |  |
| CCc1c2c(nc3ccc(O[C@@H]4O[C@H](CO)[C@@H](O)[C@H](O)[C@H]4NC(C)=O)cc13)-c1cc3c(c(=O)n1C2)COC(=O)[C@]3(O)CC [SN38-βGlcNAc] | did not inhibit AChE activity in this concentration range | 1.44 | no body weight loss was found during the treatment period | significant suppression of tumor growth was confirmed | 100 | 100 | reduced locomotor activity and prone states were found in more than half of the mice in both groups | ≥ 500 | the tumor growth was almost completely suppressed | 100 | 100 | 100 | 100 | No body weight change was observed | the tumor growth was significantly suppressed |
